Patent US20250186463A1, “ABIRATERONE DECANOATE PRODRUGS AND USE IN THERAPY” (PROPELLA THERAPEUTICS, INC., priority 2022, published 2025)

Key:
[1] = system: Prostate Specific Antigen (PSA); assay: Phase 1/2a study: PSA response; assay type: in vivo, human; settings: for Undetectable PSA: defined as PSA < 0.2 ng/mL
Method: This is a Phase 1/2a, Open-label, Multicenter Study of Intramuscular Abiraterone Decanoate Depot in Patients with Advanced Prostate Cancer.
Formulations and dosing regimen: The formulation used in the study (abiraterone decanoate for intramuscular [i.m.] injection) is a solution formulation of abiraterone decanoate at a concentration of 180 mg/mL and will be provided as a 10 mL vial containing 990 mg of abiraterone decanoate in 5.5 mL of solution. See further details of the formulations in Example 2 (for each milliliter: Abiraterone Decanoate, about 180 mg/mL; Benzyl Alcohol, about 100 mg/mL; Benzyl Benzoate, about 200 mg/mL; and Corn oil, q.s. to 1 mL). Abiraterone Decanoate will be administered as an i.m. injection every 84 days (±3 days). Dose escalation will proceed with a modified Fibonacci sequence. Based on emerging data, intermediate doses may be evaluated.
Study Design: This is a Phase 1/2a, Open-label, Multicenter Study of Intramuscular Abiraterone Decanoate Depot in Patients with Advanced Prostate Cancer. In Phase 1, all patients will receive i.m. Abiraterone Decanoate depot in 84-day treatment cycles combined with daily oral prednisone or dexamethasone. In Phase 2a, patients will be randomized 1:1 and treated with i.m. Abiraterone Decanoate depot in 84-day treatment cycles in combination with dexamethasone (Arm A) or abiraterone acetate daily+prednisone (Arm B). In both Phases, patients will undergo scheduled periodic assessments of serum testosterone levels. Participants may continue treatment until they meet any discontinuation criteria outlined in the protocol.
(§1) Pharmacodynamic Analysis: Determination of Prostate Specific Antigen (PSA), serum testosterone, dehydroepiandrosterone (DHEA), dehydroepiandrosterone sulfate (DHEA-S), androstenedione, dihydrotestosterone (DHT), progesterone, cortisol, adrenocorticotropic hormone (ACTH), corticosterone, 11-dexoycorticosterone (11-DOC) and 11-deoxycortisol.
Based on the available data, the recommended dose for Phase 2 is about 1260 mg abiraterone decanoate once every three months (12 weeks). All cohorts 1 and 2 in this clinical study were treated with prednisone, 5 mg orally once or twice daily; and all cohorts 3-5 were treated with dexamethasone, 0.5 mg orally once daily. The results shown herein for these cohorts should be understood accordingly.
PSA Levels: the median baseline PSA level was 3.01 ng/mL. […] The table below further summarizes the reduction of PSA observed without elevated progesterone level.

[2] = Phase 1/2a study: safety and tolerability; assay type: in vivo, human
Description: At each dose cohort, 3 to 4 patients will be enrolled. If none of the patients experience a dose-limiting toxicity (DLT) in the first 28 days (the DLT period) the dose will be escalated in the next cohort. A DLT will be defined as any of the following using on the Common Terminology Criteria for Adverse Events (CTCAE) criteria v5.0 regardless of attribution to the study drug unless it is clearly due to the patient's underlying disease or extraneous causes:
Safety Analysis: Adverse events will be summarized by severity, seriousness, and relationship to study treatments. Laboratory data, vital signs, PFTs and ECGs will be compared to baseline values.

lymph node lesions = assay: Follow-up analysis and post-study PET/CT scan (Patient 1); assay type: in vivo, human; settings: Patient 1, 180 mg, CSPC; enzalutamide started after study
Method: Patient 1. This patient is in cohort 1, which was administered 180 mg of abiraterone decanoate. This patient is […], with CSPC, with a Gleason score ≤6, who entered the study with left common iliac and femoral lymph node involvement and measurable PSA. The patient received degarelix (March thru May 2021) and leuprolide (starting June 2021). Abiraterone decanoate was injected to the patient on Jul. […] On Sep. 24, 2021, this patient started enzalutamide (Xtandi) treatment.

[3] = system: serum DHEA-S, DHEA, androstenedione; assay: Phase 1/2a study: serum DHEA-S, DHEA, androstenedione; assay type: in vivo, human
Description: as §1

[4] = Animal studies of intramuscular abiraterone decanoate: liver toxicity; assay type: in vivo; settings: intramuscular administration, tested doses

For `CCCCCCCCCC(=O)O[C@H]1CC[C@@]2(C)C(=CC[C@@H]3[C@@H]2CC[C@]2(C)C(c4cccnc4)=CC[C@@H]32)C1` [abiraterone decanoate], the “percentages of patients achieving PSA50 and 90 versus those reported for abiraterone acetate (AA) and enzalutamide (Enza)” value ([1]; Chemo-naïve CRPC, FIGS. 9A and 9B) was “much higher”, the PSA at follow-up ([1]; Patient 1, 180 mg, CSPC, enzalutamide started after study) was “below LLOQ” and the “patients with PSA50” value ([1]; cohorts 3, 4, and 5) was 15 out of 16. For the same compound, the “patients with PSA90” value ([1]; cohorts 3, 4, and 5) was 8 out of 16, the “Best PSA Response” value ([1]; patient 02-1403, Cohort 4, 1260 mg, mCRPC, Visit C4D28) was −98% and the “Undetectable PSA” value ([1]; patient 02-1403, Cohort 4, 1260 mg, mCRPC) was “No”. For the same compound, the “Best PSA Response” value ([1]; patient 02-1405, Cohort 4, 1260 mg, mCRPC, Visit C1D56) was −94%, the “Undetectable PSA” value ([1]; patient 02-1405, Cohort 4, 1260 mg, mCRPC) was “No” and the “Best PSA Response” value ([1]; patient 02-1504, Cohort 5, 1800 mg, mCRPC, Visit C1D28) was −92.4. For the same compound, the “Undetectable PSA” value ([1]; patient 02-1504, Cohort 5, 1800 mg, mCRPC) was “No”, the “Best PSA Response” value ([1]; patient 02-1505, Cohort 5, 1800 mg, mCSPC, Visit C1D84) was −98% and the “Undetectable PSA” value ([1]; patient 02-1505, Cohort 5, 1800 mg, mCSPC) was “No”. For the same compound, the “Best PSA Response” value ([1]; patient 04-1406, Cohort 4, 1260 mg, mCSPC, Visit C1D56) was −82%, the “Undetectable PSA” value ([1]; patient 04-1406, Cohort 4, 1260 mg, mCSPC) was “No” and the “Best PSA Response” value ([1]; patient 04-1503, Cohort 5, 1800 mg, mCSPC, Visit C1D84) was −67%. The “Undetectable PSA” value ([1]; patient 04-1503, Cohort 5, 1800 mg, mCSPC) was “Yes”, the “Best PSA Response” value ([1]; patient 04-1506, Cohort 5, 1800 mg, mCRPC, Visit C1D28) was −54% and the “Undetectable PSA” value ([1]; patient 04-1506, Cohort 5, 1800 mg, mCRPC) was “No”. For the same compound, the “Best PSA Response” value ([1]; patient 06-1401, Cohort 4, 1260 mg, mCRPC, Visit C3D84) was −99.97%, the “Undetectable PSA” value ([1]; patient 06-1401, Cohort 4, 1260 mg, mCRPC) was “Yes” and the “Best PSA Response” value ([1]; patient 06-1402, Cohort 4, 1260 mg, mCRPC, Visit C4D28) was −93%. The “Undetectable PSA” value ([1]; patient 06-1402, Cohort 4, 1260 mg, mCRPC) was “No”, the “Best PSA Response” value ([1]; patient 06-1404, Cohort 4, 1260 mg, mCSPC, Visit C2D84) was −67% and the “Undetectable PSA” value ([1]; patient 06-1404, Cohort 4, 1260 mg, mCSPC) was “Yes”. The “Best PSA Response” value ([1]; patient 06-1501, Cohort 5, 1800 mg, mCRPC, Visit C1D84) was 48%, the “Undetectable PSA” value ([1]; patient 06-1501, Cohort 5, 1800 mg, mCRPC) was “No” and the “Best PSA Response” value ([1]; patient 06-1502, Cohort 5, 1800 mg, mCSPC, Visit C2D84) was −99.6%^. For the same compound, the “Undetectable PSA” value ([1]; patient 06-1502, Cohort 5, 1800 mg, mCSPC) was “Yes”, the “increases in upstream steroids from CYP17A1 hydroxylase, compared with Zytiga” value ([2]; Phase 1 study) was “far less than observed with Zytiga” and the “safety issues relating to mineralocorticoid excess” value ([2]; Phase 1 study, to date) was “no safety issues relating to mineralocorticoid excess”. The safety profile ([2]; all cohorts 1-5) was “excellent”, the “tolerability in human subjects” value ([2]; in vivo) was “generally well tolerated” and the “lymph node lesions on post-study PET/CT scan” value (lymph node lesions) was “complete resolution of prior lymph node lesions”. For the same compound, the “serum DHEA-S level vs baseline” value ([3]; cohorts 1-5, FIG. 3B) was “significantly reduced”, the “serum DHEA level vs baseline” value ([3]; cohorts 1-5, FIG. 3C) was “significantly reduced” and the “serum androstenedione level vs baseline” value ([3]; cohorts 1-5, FIG. 3D) was “significantly reduced”. The liver toxicity [4] was “no liver toxicity was observed”.
